Values joined by “and” are separate entries in the source; they are usually repeats but may differ in a detail not shown here. Identical values can stand only once.
Test: Plasma and tissue distribution of Cryptophycin Payload and Cryptophycin Metabolite 1 after Cryptophycin Payload alone or with CTX in PC-3 xenograft nude mice (LC-MS/MS)
Type: in vivo, mouse
Method: For the present experiment, materials, methods, drugs and model were as described in Example 21. […] Following intravenous administration, whole blood samples were collected at predetermined time points via cardiac puncture (n=3 mice per time point). Blood samples were centrifuged to obtain plasma and subsequently stored at […] or lower pending analysis. Additionally, at each time point, kidney, liver, small intestine, brain, heart, and tumor were harvested by removing entire specimen from surrounding tissues (only a portion of liver and small intestine were removed). After removal, tissues were rinsed with normal saline solution (contents of small intestine were emptied) and blotted dry with clean adsorptive tissue. Once dried, the specimens were weighed and stored at −20° C. or lower pending analysis. […] Pharmacokinetic (PK) parameters were calculated. Mean plasma and tissue concentrations were used to calculate mean PK parameters. Skin and skeletal muscle which were not assessed due to difficulty of homogenization.
Vehicle for single dose group was 10% ethanol, 5% Tween 80, 85% saline. Vehicle for combination treatment was 5% ethanol, 2.5% Tween 80, 92.5% saline.

[1] = Brain, Payload 0.4 mg/kg + CTX 16 mg/kg IV
[2] = Brain, Payload 0.4 mg/kg IV alone
[3] = Heart, Payload 0.4 mg/kg + CTX 16 mg/kg IV
[4] = Heart, Payload 0.4 mg/kg IV alone
[5] = Kidney, Payload 0.4 mg/kg + CTX 16 mg/kg IV
[6] = Kidney, Payload 0.4 mg/kg IV alone
[7] = Liver, Payload 0.4 mg/kg + CTX 16 mg/kg IV
[8] = Liver, Payload 0.4 mg/kg IV alone
[9] = Payload 0.4 mg/kg + CTX 16 mg/kg IV, 0.083 h
[10] = Payload 0.4 mg/kg + CTX 16 mg/kg IV, 0.5 h
[11] = Payload 0.4 mg/kg + CTX 16 mg/kg IV, 1 h
[12] = Payload 0.4 mg/kg + CTX 16 mg/kg IV, 2 h
[13] = Payload 0.4 mg/kg + CTX 16 mg/kg IV, 6 h
[14] = Payload 0.4 mg/kg + CTX 16 mg/kg IV, 24 h
[15] = Payload 0.4 mg/kg IV alone, 0.083 h
[16] = Payload 0.4 mg/kg IV alone, 0.5 h
[17] = Payload 0.4 mg/kg IV alone, 1 h
[18] = Payload 0.4 mg/kg IV alone, 2 h
[19] = Payload 0.4 mg/kg IV alone, 6 h
[20] = Payload 0.4 mg/kg IV alone, 24 h
[21] = Plasma, Payload 0.4 mg/kg + CTX 16 mg/kg IV
[22] = Plasma, Payload 0.4 mg/kg IV alone
[23] = Small Intestine, Payload 0.4 mg/kg + CTX 16 mg/kg IV
[24] = Small Intestine, Payload 0.4 mg/kg IV alone
[25] = Tumor, Payload 0.4 mg/kg + CTX 16 mg/kg IV
[26] = Tumor, Payload 0.4 mg/kg IV alone

COc1ccc(CC2NC(=O)C=CCC(C(C)C3OC3c3ccc(CN4CCN(CCC(C)(C)SC)CC4)cc3)OC(=O)C(CC(C)C)NC(=O)C(C)(C)CNC2=O)cc1Cl (stereo not drawn) [Cryptophycin Metabolite 1]
AUC(0-t) of Cryptophycin Metabolite 1 [1]: 5.38 ng·h/g | tmax of Cryptophycin Metabolite 1 [1]: 120 min | AUC(0-t) of Cryptophycin Metabolite 1 [2]: 4.42 ng·h/g | tmax of Cryptophycin Metabolite 1 [2]: 4.8 min | AUC(0-inf) of Cryptophycin Metabolite 1 [3]: 620 ng·h/g | AUC(0-t) of Cryptophycin Metabolite 1 [3]: 616 ng·h/g | t1/2 of Cryptophycin Metabolite 1 [3]: 3.17 h | tmax of Cryptophycin Metabolite 1 [3]: 4.8 min | AUC(0-inf) of Cryptophycin Metabolite 1 [4]: 396 ng·h/g | AUC(0-t) of Cryptophycin Metabolite 1 [4]: 394 ng·h/g | t1/2 of Cryptophycin Metabolite 1 [4]: 3.06 h | tmax of Cryptophycin Metabolite 1 [4]: 4.8 min | AUC(0-t) of Cryptophycin Metabolite 1 [5]: 2720 ng·h/g | tmax of Cryptophycin Metabolite 1 [5]: 120 min | AUC(0-inf) of Cryptophycin Metabolite 1 [6]: 1750 ng·h/g | AUC(0-t) of Cryptophycin Metabolite 1 [6]: 1720 ng·h/g | t1/2 of Cryptophycin Metabolite 1 [6]: 3.99 h | tmax of Cryptophycin Metabolite 1 [6]: 30 min | AUC(0-inf) of Cryptophycin Metabolite 1 [7]: 2930 ng·h/g | AUC(0-t) of Cryptophycin Metabolite 1 [7]: 2900 ng·h/g | t1/2 of Cryptophycin Metabolite 1 [7]: 4.04 h | tmax of Cryptophycin Metabolite 1 [7]: 4.8 min | AUC(0-inf) of Cryptophycin Metabolite 1 [8]: 1870 ng·h/g | AUC(0-t) of Cryptophycin Metabolite 1 [8]: 1820 ng·h/g | t1/2 of Cryptophycin Metabolite 1 [8]: 4.77 h | tmax of Cryptophycin Metabolite 1 [8]: 4.8 min | Concentration of Cryptophycin Metabolite 1, Brain, Mean [9]: 0.622 ng/g | Concentration of Cryptophycin Metabolite 1, Heart, Mean [9]: 107 ng/g | Concentration of Cryptophycin Metabolite 1, Kidney, Mean [9]: 115 ng/g | Concentration of Cryptophycin Metabolite 1, Liver, Mean [9]: 1540 ng/g | Concentration of Cryptophycin Metabolite 1, Plasma, Mean [9]: 10.8 ng/mL | Concentration of Cryptophycin Metabolite 1, Small Intestine, Mean [9]: 10.4 ng/g | Concentration of Cryptophycin Metabolite 1, Tumor, Mean [9]: 2.61 ng/g | Concentration of Cryptophycin Metabolite 1, Brain, Mean [10]: 0.641 ng/g | Concentration of Cryptophycin Metabolite 1, Heart, Mean [10]: 94.9 ng/g | Concentration of Cryptophycin Metabolite 1, Kidney, Mean [10]: 252 ng/g | Concentration of Cryptophycin Metabolite 1, Liver, Mean [10]: 1000 ng/g | Concentration of Cryptophycin Metabolite 1, Plasma, Mean [10]: 8.10 ng/mL | Concentration of Cryptophycin Metabolite 1, Small Intestine, Mean [10]: 18.5 ng/g | Concentration of Cryptophycin Metabolite 1, Tumor, Mean [10]: 2.69 ng/g | Concentration of Cryptophycin Metabolite 1, Brain, Mean [11]: 1.07 ng/g | Concentration of Cryptophycin Metabolite 1, Heart, Mean [11]: 77.1 ng/g | Concentration of Cryptophycin Metabolite 1, Kidney, Mean [11]: 285 ng/g | Concentration of Cryptophycin Metabolite 1, Liver, Mean [11]: 1370 ng/g | Concentration of Cryptophycin Metabolite 1, Plasma, Mean [11]: 12.4 ng/mL | Concentration of Cryptophycin Metabolite 1, Small Intestine, Mean [11]: 26.9 ng/g | Concentration of Cryptophycin Metabolite 1, Tumor, Mean [11]: 3.90 ng/g | Concentration of Cryptophycin Metabolite 1, Brain, Mean [12]: 1.09 ng/g | Concentration of Cryptophycin Metabolite 1, Heart, Mean [12]: 87.9 ng/g | Concentration of Cryptophycin Metabolite 1, Kidney, Mean [12]: 370 ng/g | Concentration of Cryptophycin Metabolite 1, Liver, Mean [12]: 335 ng/g | Concentration of Cryptophycin Metabolite 1, Plasma, Mean [12]: 5.12 ng/mL | Concentration of Cryptophycin Metabolite 1, Small Intestine, Mean [12]: 21.8 ng/g | Concentration of Cryptophycin Metabolite 1, Tumor, Mean [12]: 9.66 ng/g | Concentration of Cryptophycin Metabolite 1, Brain, Mean [13]: 0.725 ng/g | Concentration of Cryptophycin Metabolite 1, Heart, Mean [13]: 43.7 ng/g | Concentration of Cryptophycin Metabolite 1, Kidney, Mean [13]: 191 ng/g | Concentration of Cryptophycin Metabolite 1, Liver, Mean [13]: 53.6 ng/g | Concentration of Cryptophycin Metabolite 1, Plasma, Mean [13]: 2.15 ng/mL | Concentration of Cryptophycin Metabolite 1, Small Intestine, Mean [13]: 14.8 ng/g | Concentration of Cryptophycin Metabolite 1, Tumor, Mean [13]: 12.2 ng/g | Concentration of Cryptophycin Metabolite 1, Brain, Mean [14]: BLQ | Concentration of Cryptophycin Metabolite 1, Heart, Mean [14]: 0.763 ng/g | Concentration of Cryptophycin Metabolite 1, Kidney, Mean [14]: 9.65 ng/g | Concentration of Cryptophycin Metabolite 1, Liver, Mean [14]: 5.15 ng/g | Concentration of Cryptophycin Metabolite 1, Plasma, Mean [14]: 0.384 ng/mL | Concentration of Cryptophycin Metabolite 1, Small Intestine, Mean [14]: 4.02 ng/g | Concentration of Cryptophycin Metabolite 1, Tumor, Mean [14]: 10.8 ng/g | Concentration of Cryptophycin Metabolite 1, Brain, Mean [15]: 1.46 ng/g | Concentration of Cryptophycin Metabolite 1, Heart, Mean [15]: 87.1 ng/g | Concentration of Cryptophycin Metabolite 1, Kidney, Mean [15]: 225 ng/g | Concentration of Cryptophycin Metabolite 1, Liver, Mean [15]: 2710 ng/g | Concentration of Cryptophycin Metabolite 1, Plasma, Mean [15]: 23.6 ng/mL | Concentration of Cryptophycin Metabolite 1, Small Intestine, Mean [15]: 22.2 ng/g | Concentration of Cryptophycin Metabolite 1, Tumor, Mean [15]: 2.36 ng/g | Concentration of Cryptophycin Metabolite 1, Brain, Mean [16]: 0.895 ng/g | Concentration of Cryptophycin Metabolite 1, Heart, Mean [16]: 80.2 ng/g | Concentration of Cryptophycin Metabolite 1, Kidney, Mean [16]: 361 ng/g | Concentration of Cryptophycin Metabolite 1, Liver, Mean [16]: 499 ng/g | Concentration of Cryptophycin Metabolite 1, Plasma, Mean [16]: 8.37 ng/mL | Concentration of Cryptophycin Metabolite 1, Small Intestine, Mean [16]: 29.7 ng/g | Concentration of Cryptophycin Metabolite 1, Tumor, Mean [16]: 3.27 ng/g | Concentration of Cryptophycin Metabolite 1, Brain, Mean [17]: 0.983 ng/g | Concentration of Cryptophycin Metabolite 1, Heart, Mean [17]: 70.3 ng/g | Concentration of Cryptophycin Metabolite 1, Kidney, Mean [17]: 294 ng/g | Concentration of Cryptophycin Metabolite 1, Liver, Mean [17]: 310 ng/g | Concentration of Cryptophycin Metabolite 1, Plasma, Mean [17]: 6.46 ng/mL | Concentration of Cryptophycin Metabolite 1, Small Intestine, Mean [17]: 24.3 ng/g | Concentration of Cryptophycin Metabolite 1, Tumor, Mean [17]: 3.41 ng/g | Concentration of Cryptophycin Metabolite 1, Brain, Mean [18]: 0.887 ng/g | Concentration of Cryptophycin Metabolite 1, Heart, Mean [18]: 52.8 ng/g | Concentration of Cryptophycin Metabolite 1, Kidney, Mean [18]: 249 ng/g | Concentration of Cryptophycin Metabolite 1, Liver, Mean [18]: 194 ng/g | Concentration of Cryptophycin Metabolite 1, Plasma, Mean [18]: 4.32 ng/mL | Concentration of Cryptophycin Metabolite 1, Small Intestine, Mean [18]: 23.1 ng/g | Concentration of Cryptophycin Metabolite 1, Tumor, Mean [18]: 4.01 ng/g | Concentration of Cryptophycin Metabolite 1, Brain, Mean [19]: 0.412 ng/g | Concentration of Cryptophycin Metabolite 1, Heart, Mean [19]: 25.4 ng/g | Concentration of Cryptophycin Metabolite 1, Kidney, Mean [19]: 91.2 ng/g | Concentration of Cryptophycin Metabolite 1, Liver, Mean [19]: 37.2 ng/g | Concentration of Cryptophycin Metabolite 1, Plasma, Mean [19]: 1.86 ng/mL | Concentration of Cryptophycin Metabolite 1, Small Intestine, Mean [19]: 26.1 ng/g | Concentration of Cryptophycin Metabolite 1, Tumor, Mean [19]: 5.33 ng/g | Concentration of Cryptophycin Metabolite 1, Brain, Mean [20]: BLQ | Concentration of Cryptophycin Metabolite 1, Heart, Mean [20]: 0.387 ng/g | Concentration of Cryptophycin Metabolite 1, Kidney, Mean [20]: 4.88 ng/g | Concentration of Cryptophycin Metabolite 1, Liver, Mean [20]: 7.89 ng/g | Concentration of Cryptophycin Metabolite 1, Plasma, Mean [20]: 0.141 ng/mL | Concentration of Cryptophycin Metabolite 1, Small Intestine, Mean [20]: 1.50 ng/g | Concentration of Cryptophycin Metabolite 1, Tumor, Mean [20]: 4.91 ng/g | AUC(0-inf) of Cryptophycin Metabolite 1 [21]: 53.2 ng·h/mL | AUC(0-t) of Cryptophycin Metabolite 1 [21]: 49.9 ng·h/mL | Cmax of Cryptophycin Metabolite 1 [21]: 12.4 ng/mL | t1/2 of Cryptophycin Metabolite 1 [21]: 6.24 h | tmax of Cryptophycin Metabolite 1 [21]: 60 min | AUC(0-inf) of Cryptophycin Metabolite 1 [22]: 40.7 ng·h/mL | AUC(0-t) of Cryptophycin Metabolite 1 [22]: 39.8 ng·h/mL | Cmax of Cryptophycin Metabolite 1 [22]: 23.6 ng/mL | t1/2 of Cryptophycin Metabolite 1 [22]: 4.57 h | tmax of Cryptophycin Metabolite 1 [22]: 4.98 min and 4.8 min | AUC(0-inf) of Cryptophycin Metabolite 1 [23]: 316 ng·h/g | AUC(0-t) of Cryptophycin Metabolite 1 [23]: 263 ng·h/g | t1/2 of Cryptophycin Metabolite 1 [23]: 9.18 h | tmax of Cryptophycin Metabolite 1 [23]: 60 min | AUC(0-inf) of Cryptophycin Metabolite 1 [24]: 314 ng·h/g | AUC(0-t) of Cryptophycin Metabolite 1 [24]: 302 ng·h/g | t1/2 of Cryptophycin Metabolite 1 [24]: 5.15 h | tmax of Cryptophycin Metabolite 1 [24]: 30 min | AUC(0-t) of Cryptophycin Metabolite 1 [25]: 259 ng·h/g | tmax of Cryptophycin Metabolite 1 [25]: 360 min | AUC(0-t) of Cryptophycin Metabolite 1 [26]: 117 ng·h/g | tmax of Cryptophycin Metabolite 1 [26]: 360 min

Reference: patent US11826399B2, “Chlorotoxin agents and uses thereof” (Eisai Inc., priority 2017, dated 2023)
